Measurements published in ChEMBL document CHEMBL1909294, “Translating clinical findings into knowledge in drug safety evaluation--drug induced liver injury prediction system (DILIps)” (PLoS Comput Biol, 2011).
*1 amine or outer side, *2 acyl side, *3 side chain or, on linkers, in order; H or OH if unused. Where a SMILES comes first, the peptide text is derived from it. Bridges are numbered along the chain shown (N, C = ends). Roman numbers before positions name the chains, in order. [ ]: non-standard residue; d: D form. Actinocin(9to1) = Cc1c2oc3c(C)ccc(C(=O)[*:1])c3nc-2c(C(=O)[*:2])c(N)c1=O; NMeV = CN[C@H](C(=O)O)C(C)C; Sar = CNCC(=O)O

How the values were obtained:
Hepatotoxicity [1] = tested on: Hepatotoxicity;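 for HepSE bilirubinemia: bilirubinemia hepatic side effect score drawn from the DILIps training data, a prediction system for drug-induced liver injury; call rule not given here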;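 for HepSE cholecystitis: Cholecystitis-related hepatic side effect score drawn from the DILIps (drug-induced liver injury prediction) training data set; call rule not given here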;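 for HepSE hepatomegaly: hepatic side effect score for hepatomegaly, taken from the training set of the DILIps drug-induced liver injury prediction system; call rule not given here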;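 for HepSE jaundice: Jaundice-related hepatic side-effect score drawn from the training data of the DILIps (drug-induced liver injury prediction system); call rule not given here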; for HepSE liver disease: call rule not given here;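 for HepSE liver fatty: hepatic side effect score for fatty liver, taken from the DILIps training set for predicting drug-induced liver injury; call rule not given here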;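 for HepSE liver function tests abnormal: hepatic side effect score taken from the DILIps (drug-induced liver injury prediction system) training data, here covering abnormal liver function test findings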
Hepatotoxicity [2] = tested on: Hepatotoxicity; remark: listed apart in the source;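 for HepSE bilirubinemia: bilirubinemia hepatic side effect score drawn from the DILIps training data, a prediction system for drug-induced liver injury; call rule not given here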;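 for HepSE cholecystitis: Cholecystitis-related hepatic side effect score drawn from the DILIps (drug-induced liver injury prediction) training data set; call rule not given here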;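 for HepSE hepatomegaly: hepatic side effect score for hepatomegaly, taken from the training set of the DILIps drug-induced liver injury prediction system; call rule not given here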; for HepSE liver disease: call rule not given here;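 for HepSE liver fatty: hepatic side effect score for fatty liver, taken from the DILIps training set for predicting drug-induced liver injury; call rule not given here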;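 for HepSE liver function tests abnormal: hepatic side effect score taken from the DILIps (drug-induced liver injury prediction system) training data, here covering abnormal liver function test findings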
Hepatotoxicity [3] = tested on: Hepatotoxicity; remark: listed apart in the source;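 for HepSE bilirubinemia: bilirubinemia hepatic side effect score drawn from the DILIps training data, a prediction system for drug-induced liver injury; call rule not given here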;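 for HepSE cholecystitis: Cholecystitis-related hepatic side effect score drawn from the DILIps (drug-induced liver injury prediction) training data set; call rule not given here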;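 for HepSE hepatomegaly: hepatic side effect score for hepatomegaly, taken from the training set of the DILIps drug-induced liver injury prediction system; call rule not given here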; for HepSE liver disease: call rule not given here;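 for HepSE liver fatty: hepatic side effect score for fatty liver, taken from the DILIps training set for predicting drug-induced liver injury; call rule not given here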;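 for HepSE liver function tests abnormal: hepatic side effect score taken from the DILIps (drug-induced liver injury prediction system) training data, here covering abnormal liver function test findings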
Hepatotoxicity [4] = tested on: Hepatotoxicity; remark: listed apart in the source;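 for HepSE bilirubinemia: bilirubinemia hepatic side effect score drawn from the DILIps training data, a prediction system for drug-induced liver injury; call rule not given here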;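 for HepSE cholecystitis: Cholecystitis-related hepatic side effect score drawn from the DILIps (drug-induced liver injury prediction) training data set; call rule not given here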;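 for HepSE hepatomegaly: hepatic side effect score for hepatomegaly, taken from the training set of the DILIps drug-induced liver injury prediction system; call rule not given here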; for HepSE liver disease: call rule not given here;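 for HepSE liver fatty: hepatic side effect score for fatty liver, taken from the DILIps training set for predicting drug-induced liver injury; call rule not given here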;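 for HepSE liver function tests abnormal: hepatic side effect score taken from the DILIps (drug-induced liver injury prediction system) training data, here covering abnormal liver function test findings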
Hepatotoxicity [5] = tested on: Hepatotoxicity; remark: listed apart in the source; for HepSE liver disease: call rule not given here
Hepatotoxicity [6] = tested on: Hepatotoxicity; remark: listed apart in the source; for HepSE liver disease: call rule not given here
Hepatotoxicity [7] = tested on: Hepatotoxicity; remark: listed apart in the source
Hepatotoxicity [8] = tested on: Hepatotoxicity; remark: listed apart in the source
Hepatotoxicity [9] = tested on: Hepatotoxicity; remark: listed apart in the source
Hepatotoxicity [10] = tested on: Hepatotoxicity; remark: listed apart in the source
Hepatotoxicity [11] = tested on: Hepatotoxicity; remark: listed apart in the source
Hepatotoxicity [12] = tested on: Hepatotoxicity; remark: listed apart in the source
Hepatotoxicity [13] = tested on: Hepatotoxicity; remark: listed apart in the source
Hepatotoxicity [14] = tested on: Hepatotoxicity; remark: listed apart in the source

Structure (SMILES)	HepSE_liver function tests abnormal (Hepatotoxicity [1])	HepSE_liver disease (Hepatotoxicity [2])	HepSE_bilirubinemia (Hepatotoxicity [3])	HepSE_hepatitis (Hepatotoxicity [4])	HepSE_hepatic necrosis (Hepatotoxicity [5])	HepSE_liver fatty (Hepatotoxicity [6])	HepSE_cholecystitis (Hepatotoxicity [7])	HepSE_hepatomegaly (Hepatotoxicity [8])	HepSE_jaundice (Hepatotoxicity [9])	HepSE_Combined Scores (Hepatotoxicity [10])	HepSE_cholelithiasis (Hepatotoxicity [11])	HepSE_elevated liver function tests (Hepatotoxicity [12])	HepSE_hepatic failure (Hepatotoxicity [13])	HepSE_cirrhosis (Hepatotoxicity [14])	also measured
Nc1ccn([C@@H]2O[C@H](CO)[C@@H](O)[C@@H]2O)c(=O)n1 [CYTARABINE]	–	–	–	–	–	–	–	–	–	–	–	–	–	–	HepSE_liver function tests abnormal (Hepatotoxicity [1]; Liver): 0; HepSE_liver disease (Hepatotoxicity [2]; Liver): 0; HepSE_bilirubinemia (Hepatotoxicity [3]; Liver): 1; HepSE_hepatitis (Hepatotoxicity [4]; Liver): 0; HepSE_hepatic necrosis (Hepatotoxicity [5]; Liver): 0; HepSE_liver fatty (Hepatotoxicity [6]; Liver): 0; HepSE_cholecystitis (Hepatotoxicity [7]; Liver): 0; HepSE_hepatomegaly (Hepatotoxicity [8]; Liver): 0; HepSE_jaundice (Hepatotoxicity [9]; Liver): 1; HepSE_Combined Scores (Hepatotoxicity [10]; Liver): 2; HepSE_cholelithiasis (Hepatotoxicity [11]; Liver): 0; HepSE_elevated liver function tests (Hepatotoxicity [12]; Liver): 0; HepSE_hepatic failure (Hepatotoxicity [13]; Liver): 0; HepSE_cirrhosis (Hepatotoxicity [14]; Liver): 0
C[C@@H](O)C(=O)O [D-LACTIC ACID]	0	0	0	0	0	0	0	0	0	0	0	0	0	0	–
CN(C)/N=N/c1[nH]cnc1C(N)=O [DACARBAZINE]	0	0	0	0	0	0	0	0	0	0	0	0	0	0	–
Cc1c2oc3c(C)ccc(C(=O)N[C@@H]4C(=O)N[C@H](C(C)C)C(=O)N5CCC[C@H]5C(=O)N(C)CC(=O)N(C)[C@@H](C(C)C)C(=O)O[C@@H]4C)c3nc-2c(C(=O)N[C@@H]2C(=O)N[C@H](C(C)C)C(=O)N3CCC[C@H]3C(=O)N(C)CC(=O)N(C)[C@@H](C(C)C)C(=O)O[C@@H]2C)c(N)c1=O [DACTINOMYCIN] (I: T[dV]P[Sar][NMeV] / II: T[dV]P[Sar][NMeV]; ester I:1-I:C, II:1-II:C; linker I:N-II:N via Actinocin(9to1))	0	0	0	0	0	0	0	0	0	1	0	0	1	0	–
C#C[C@]1(O)CC[C@H]2[C@@H]3CCC4=Cc5oncc5C[C@]4(C)[C@H]3CC[C@@]21C [DANAZOL]	0	0	0	0	0	0	0	0	1	1	0	0	0	0	–
O=C1CN(/N=C/c2ccc(-c3ccc([N+](=O)[O-])cc3)o2)C(O)=N1 [DANTROLENE]	0	0	0	1	0	0	0	0	0	2	0	0	1	0	–
Nc1ccc(S(=O)(=O)c2ccc(N)cc2)cc1 [DAPSONE]	–	–	–	–	–	–	–	–	–	–	–	–	–	–	HepSE_liver function tests abnormal (Hepatotoxicity [1]; Liver): 0; HepSE_liver disease (Hepatotoxicity [2]; Liver): 0; HepSE_bilirubinemia (Hepatotoxicity [3]; Liver): 0; HepSE_hepatitis (Hepatotoxicity [4]; Liver): 0; HepSE_hepatic necrosis (Hepatotoxicity [5]; Liver): 0; HepSE_liver fatty (Hepatotoxicity [6]; Liver): 0; HepSE_cholecystitis (Hepatotoxicity [7]; Liver): 0; HepSE_hepatomegaly (Hepatotoxicity [8]; Liver): 0; HepSE_jaundice (Hepatotoxicity [9]; Liver): 0; HepSE_Combined Scores (Hepatotoxicity [10]; Liver): 0; HepSE_cholelithiasis (Hepatotoxicity [11]; Liver): 0; HepSE_elevated liver function tests (Hepatotoxicity [12]; Liver): 0; HepSE_hepatic failure (Hepatotoxicity [13]; Liver): 0; HepSE_cirrhosis (Hepatotoxicity [14]; Liver): 0
NC(=O)C(c1ccccc1)(c1ccccc1)[C@@H]1CCN(CCc2ccc3c(c2)CCO3)C1 [DARIFENACIN]	0	0	0	0	0	0	0	0	0	0	0	0	0	0	–
Cc1nc(Nc2ncc(C(=O)Nc3c(C)cccc3Cl)s2)cc(N2CCN(CCO)CC2)n1.O [DASATINIB]	1	0	0	1	0	0	1	0	0	3	0	0	0	0	–
COc1cccc2c1C(=O)c1c(O)c3c(c(O)c1C2=O)C[C@@](O)(C(C)=O)C[C@@H]3O[C@H]1C[C@H](N)[C@H](O)[C@H](C)O1 [DAUNORUBICIN]	0	0	0	0	0	0	0	1	0	1	0	0	0	0	–
O=C(O)c1ccc(-n2nc(-c3ccccc3O)nc2-c2ccccc2O)cc1 [DEFERASIROX]	1	0	0	1	0	0	0	0	0	5	1	0	1	1	–
CC(=O)N(O)CCCCCNC(=O)CCC(=O)N(O)CCCCCNC(=O)CCC(=O)N(O)CCCCCN [DEFEROXAMINE]	0	0	0	0	0	0	0	0	0	0	0	0	0	0	–
CC(C)Nc1cccnc1N1CCN(C(=O)c2cc3cc(NS(C)(=O)=O)ccc3[nH]2)CC1 [DELAVIRDINE]	0	0	1	1	0	0	0	1	1	5	0	0	1	0	–
CN(C)[C@@H]1C(O)=C(C(N)=O)C(=O)[C@@]2(O)C(O)=C3C(=O)c4c(O)ccc(Cl)c4[C@@H](O)[C@H]3C[C@@H]12 [DEMECLOCYCLINE]	0	0	0	1	0	0	0	0	0	2	0	0	1	0	–
CNCCCN1c2ccccc2CCc2ccccc21 [DESIPRAMINE]	–	–	–	–	–	–	–	–	–	–	–	–	–	–	HepSE_liver function tests abnormal (Hepatotoxicity [1]; Liver): 0; HepSE_liver disease (Hepatotoxicity [2]; Liver): 0; HepSE_bilirubinemia (Hepatotoxicity [3]; Liver): 0; HepSE_hepatitis (Hepatotoxicity [4]; Liver): 1; HepSE_hepatic necrosis (Hepatotoxicity [5]; Liver): 0; HepSE_liver fatty (Hepatotoxicity [6]; Liver): 0; HepSE_cholecystitis (Hepatotoxicity [7]; Liver): 0; HepSE_hepatomegaly (Hepatotoxicity [8]; Liver): 0; HepSE_jaundice (Hepatotoxicity [9]; Liver): 1; HepSE_Combined Scores (Hepatotoxicity [10]; Liver): 3; HepSE_cholelithiasis (Hepatotoxicity [11]; Liver): 0; HepSE_elevated liver function tests (Hepatotoxicity [12]; Liver): 1; HepSE_hepatic failure (Hepatotoxicity [13]; Liver): 0; HepSE_cirrhosis (Hepatotoxicity [14]; Liver): 0
NC(=O)CC[C@@H]1NC(=O)[C@H](Cc2ccccc2)NC(=O)[C@H](Cc2ccc(O)cc2)NC(=O)CCSSC[C@@H](C(=O)N2CCC[C@H]2C(=O)N[C@H](CCCN=C(N)N)C(=O)NCC(N)=O)NC(=O)[C@H](CC(N)=O)NC1=O [DESMOPRESSIN]	0	0	0	0	0	0	0	0	0	0	0	0	0	0	–
